Reference: patent publication US8575310B2, “Bioactive pentapeptides from rice bran and use thereof” (Board of Trustees of the University of Arkansas, priority 2009, dated 2013)
No end group written: not given here.

Assays:
Type in all cases: cell-based, human
colon cancer cells = conditions: pH 7
Procedure: An RSM design with a 3-factorial model was designed to use combinations of pH, RH (relative humidity), temperature and degree of glycosylation to evaluate enhanced anti-cancer activity of a modified (glycosylated) peptide. Peptide-glucose mixture samples were prepared at the following conditions/combinations: RH 55, 65, & 75 at pHs 6, 7 and 8 maintained at 40, 50 and 60° C. temperatures and tested for growth inhibition activity on colon cancer cells. The degree of glycosylation increased with increasing time at varying RH, and achieved a maximum of ˜20% degree of glycosylation.
Optimization for Degree of Glycosylation: The bioactive pentapeptide (0.02 g) (SEQ ID NO: 1) and D-glucose (0.002 g) were dissolved in water to give a 10% (w/v) protein solution. The solution pH was adjusted to varying pHs based on RSM design (6, 7, 8) and stirred for 10 min, and freeze-dried. The freeze-dried mixture was placed on an aluminum plate, and incubated at 50° C. at varying relative humidity ([…], 65%, 75%) based on the RSM design illustrated below in Table 3.

[1] = system: amyloid-induced neuroblastoma cells (IMR-32); assay: Protection against amyloid beta (1-42) toxicity in neuroblastoma cells, MTS assay; conditions: compared to amyloid-induced cells not treated with peptides
Procedure: Evaluation of Anti-Alzheimer's Disease Activity: Human neuroblastoma cells (IMR-32-ATCC Number CCL-127) was used as model system to evaluate the protective role of rice bran peptide fractions against amyloid beta (1-42) (Cat. No. PP69, EMD Chemicals, Inc., San Diego, Calif.) dependent toxicity. Human neuroblastoma cells were grown in the presence of beta amyloid peptide with and without bran peptide fractions at different levels. Cell survival to the amyloid-induced neuroblastoma cells upon bran peptide treatments was examined by the MTS [(3-(4,5-dimethylthiazole-2-yl)-5-(3-carboxymethoxyphenyl)-2-(4-sulfophenyl)-2H-tetrazolium, inner salt] assay, and compared to the cytotoxicity observed with amyloid-induced neuroblastoma cells.
Neuroblastoma cells were treated with amyloid peptide followed by treatment with rice bran peptide fractions. Cytotoxicity to the amyloid-induced neuroblastoma cells was examined by the MTS assay.

Caco-2 cells = assay: Trypan blue dye exclusion assay, viability of Caco-2 cells; conditions: 200 μM concentration
Procedure: Human Cancer Cell Cultures. Human colon epithelial cancer cell line Caco-2, liver epithelial cancer cell line HepG2 and breast epithelial cancer cell line HTB-26 were cultured separately at 37° C. in Dulbecco's Modified Eagles Medium (DMEM) in the presence of 10% fetal bovine serum, supplemented with 1 mM L-glutamine, sodium pyruvate, 1 mM sodium bicarbonate, and 50 μg/mL gentamycin. Human lung epithelial cancer cell line NCI-H1299 was cultured in RPMI-1640 medium supplemented with 10% fetal bovine serum. After cell growth reached 70%, cell viability was monitored by employing the trypan blue dye exclusion assay after peptide treatments. Briefly, the monolayer was allowed to grow for 2-3 days at 37° C. on 24-well flat-bottom plates. One hundred microliters (100 μL) of rice bran peptide fractions at 1 mg/mL protein content was added to the cultures. For positive control genistein at 200 and 400 μM in saline and for negative control saline alone was used. After 24-48 h of treatments, the medium was removed, and the cells were briefly dissociated with 0.1% trypsin and 0.53 mM ethylenediaminetetraacetic acid (EDTA) solution. Following this, 0.5% trypan blue dye mixed in growth medium was added to each well. Samples were then aspirated from each well and loaded onto chambers in a hemocytometer cell, and cell counts were taken. […]

Molecule | cancer cell activity inhibition (colon cancer cells) [%] | reduction in cytotoxicity of amyloid-induced neuroblastoma cells [1] [%] | viable cells on Caco-2 cell line (Caco-2 cells) [viable cells/mL]
EQRPR [bioactive pentapeptide, Glu-Gln-Arg-Pro-Arg] | ~80 | ~45 | –
O=c1c(-c2ccc(O)cc2)coc2cc(O)cc(O)c12 [Genistein] | – | – | 20000
